Measured values reported in US12404249B2, “Heterocyclic derivatives and use thereof” (C&C RESEARCH LABORATORIES, priority 2018, dated 2025).

Assays:
[1] = tested on: prostate cancer cell line (LNCap); assay: Cell growth inhibition assay (Celltiter Glo); format: cell-based; settings: Homo sapiens, LNCap cells, 120 hours incubation
Description: Cancer cell inhibitory effects by the compounds of the Examples were evaluated as follows. The prostate cancer cell line (LNCap) used was cultured under the condition according to the vendor's recommendation. LNCap was dispensed into a 96-well plate at 10,000 cells/well. After incubation under the condition of 37° C. and 5% CO2 for 24 hours, the Example compounds of 50 mM DMSO stock were diluted to various concentrations and treated to the 96-well plate containing cells. After treatment of the Example compounds, LNCap cells were incubated in an incubator (37° C., 5% CO2) for 120 hours. After each incubation time, the 96-well plate was observed under a microscope to record the presence or absence of drug precipitation and specificities, and the 96-well plate was kept at room temperature for 30 minutes. Then, after addition of 20 μL of Celltiter Glo solution, the 96-well plate was well shaken for 30 minutes. The growth inhibitory activity was measured on microLUMA LB96P (BERTHOLD) instrument using Glo-vial protocol. As a negative control, a 96 well-plate in which culture medium was added but cells were not plated was used. As a positive control, a 96 well-plate in which cells were plated and 0.1% DMSO instead of drugs was added was used. The results of growth inhibitory effects of the Example compounds on prostate cancer cell line are represented in Table 2.

STAT3 = biological target: T1, STAT3 (Homo sapiens, UniProt P40763); assay: STAT3 activation inhibition assay (reporter gene assay, LNcaP stable cell line, IL-6 stimulated); format: cell-based; settings: LNcaP stable cell line [plasmid STAT3-TA-luc], IL-6 10 ng/mL, 48 hours, luciferase activity; read-out: IC50 (μM) pSTAT3
T1 construct: endogenous in cells; host or cells: LNCaP (human prostate cancer) stably carrying pSTAT3-TA-luc reporter plasmid
T1 sequence (P40763 whole entry): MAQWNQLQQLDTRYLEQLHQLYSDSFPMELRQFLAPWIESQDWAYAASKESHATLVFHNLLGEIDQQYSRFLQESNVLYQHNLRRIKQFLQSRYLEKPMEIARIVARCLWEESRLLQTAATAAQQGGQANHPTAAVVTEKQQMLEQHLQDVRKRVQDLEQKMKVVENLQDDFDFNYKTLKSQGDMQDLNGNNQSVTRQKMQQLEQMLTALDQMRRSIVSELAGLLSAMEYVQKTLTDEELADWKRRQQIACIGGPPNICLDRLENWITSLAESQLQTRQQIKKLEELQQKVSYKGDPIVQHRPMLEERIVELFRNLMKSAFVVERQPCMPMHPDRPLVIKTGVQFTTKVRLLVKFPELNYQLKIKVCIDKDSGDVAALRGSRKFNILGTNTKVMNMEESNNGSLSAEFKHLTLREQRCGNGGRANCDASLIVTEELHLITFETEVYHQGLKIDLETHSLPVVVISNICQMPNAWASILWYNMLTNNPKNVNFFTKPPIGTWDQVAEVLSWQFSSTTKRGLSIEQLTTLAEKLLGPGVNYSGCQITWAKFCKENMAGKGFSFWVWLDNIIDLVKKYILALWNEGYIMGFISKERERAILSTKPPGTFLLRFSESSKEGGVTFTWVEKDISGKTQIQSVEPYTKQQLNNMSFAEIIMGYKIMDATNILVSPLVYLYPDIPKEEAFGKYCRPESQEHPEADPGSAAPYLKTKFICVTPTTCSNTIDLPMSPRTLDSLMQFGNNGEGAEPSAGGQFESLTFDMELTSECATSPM
Description: Cancer cell lines used for evaluating the compounds of the Examples were purchased from ATCC (American Type Culture Collection) or KCLB (Korean Cell Line Bank), and cultured according to the vendor's recommendation. The human prostate cancer cell line stably expressing the STAT3 promoter (LNcaP stable cell line [plasmid STAT3-TA-luc])—which was prepared to evaluate the inhibitory effect of the compounds of the Examples against dimerization of STAT3—was cultured in RPMI1640 (Cat no. 11875, Gibco), 10% fetal bovine serum (Cat no. SH30071.03, Hyclone) and 150 μg/mL G418 solution (Cat no. 04 727 894 001, Roche).
The reporter gene assay of LNcap stable cell line was carried out by the use of RPMI 1640 medium containing 3% DCC-FBS (without G-418). The cell line was dispensed into two (2) white 96-well plates at 30,000 cells/well/50 μL. The cell line was incubated for 24 hours under the condition of 37° C. and 5% CO2, and then the Example compounds of 50 mM DMSO stock were diluted to various concentrations and treated to two (2) white 96-well plates containing cells. Then, IL-6 was treated to a final concentration of 10 ng/mL. After the treatment of Example compounds and IL-6, the cells were cultured for 48 hours under the condition of 37° C. and 5% CO2. After 48 hours, the 96-well plates were observed under a microscope to record the presence or absence of drug precipitation and specificities, and the 96-well plates were kept at room temperature for 30 minutes. Then, in the case of the first 96-well plate, the culture medium on the plate was removed to measure the luciferase activity, and treated with passive lysis buffer at 20 µL/well and shaken for 30 minutes. The luciferase activity was measured on microLUMA LB96P (BERTHOLD) or Centro XS LB 960 (BERTHOLD) instrument using Luciferase assay system (Cat No. E1501, Promega Corporation). In the case of the second 96-well plate, 20 μL of Glo-mix solution was added to measure cytotoxicity by the compounds of the Examples, and the plate was well shaken for 10 minutes and analyzed on microLUMA LB96P (BERTHOLD) instrument using Glo-vial protocol. As a negative control, a 96 well-plate in which culture medium was added but cells were not plated was used. As a positive control, a 96 well-plate in which cells were plated and 0.1% DMSO and culture medium containing stimulation were added was used.
The results of evaluating the inhibitory effects of the compounds of the Examples against dimerization of STAT3 and STAT1 via STAT3 and STAT1 reporter gene assay are represented in Table 1.

Row | Compound | IC50 [1] | IC50 (STAT3)
1 | O=C(O)c1ccc2nc(Cl)cc(NCCc3ccc([N+](=O)[O-])cc3)c2c1 [Example 40, 2-chloro-4-((4-nitrophenethyl)amino)quinolin-6-carboxylic acid] | > 50 µM | > 50 µM
2 | CS(=O)(=O)Nc1ccc(CCNc2ncnc3sccc23)cc1 [Example 68, N-(4-(2-(thieno[2,3-d]pyrimidin-4-ylamino)ethyl)phenyl)methanesulfonamide] | 0.27 µM | 0.076 µM
3 | Cc1cccc2c(NCCc3ccc([N+](=O)[O-])cc3)cc(Cl)nc12 [Example 15, 2-chloro-8-methyl-N-(4-nitrophenethyl)quinolin-4-amine] | 1.6 µM | 3.1 µM
4 | CCOC(=O)c1ccc2nc(Cl)cc(NCCc3ccc([N+](=O)[O-])cc3)c2c1 [Example 16, ethyl 2-chloro-4-((4-nitrophenethyl)amino)quinolin-6-carboxylate] | 21.8 µM | > 50 µM
5 | O=[N+]([O-])c1ccc(CCNc2cc(Cl)nc3ccc(O)cc23)cc1 [Example 35, 2-chloro-4-((4-nitrophenethyl)amino)quinolin-6-ol] | 7.3 µM | 2.3 µM
6 | O=C(Cc1ccc([N+](=O)[O-])cc1)Nc1ncnc2ccccc12 [Example 65, 2-(4-nitrophenyl)-N-(quinazolin-4-yl)acetamide] | > 50 µM | > 50 µM
7 | NNC(=O)c1ccc2nc(Cl)cc(NCCc3ccc([N+](=O)[O-])cc3)c2c1 [Example 44, 2-chloro-4-((4-nitrophenethyl)amino)quinolin-6-carbohydrazide] | > 50 µM | > 50 µM
8 | CS(=O)(=O)Nc1ccc(CCNc2ncnc3[nH]ccc23)cc1 [Example 70, N-(4-(2-((7H-pyrrolo[2,3-d]pyrimidin-4-yl)amino)ethyl)phenyl)methanesulfonamide] | 10.8 µM | 3.8 µM
9 | O=[N+]([O-])c1ccc(CCNc2nc(F)nc3[nH]cnc23)cc1 [Example 50, 2-fluoro-N-(4-nitrophenethyl)-9H-purin-6-amine] | 23.1 µM | 13.9 µM
10 | CS(=O)(=O)Nc1ccc(CCNc2ncnc3scnc23)cc1 [Example 69, N-(4-(2-(thiazolo[5,4-d]pyrimidin-7-ylamino)ethyl)phenyl)methanesulfonamide] | 0.13 µM | 0.046 µM
11 | O=[N+]([O-])c1ccc(CCNc2nc(C(F)(F)F)nc3ccccc23)cc1 [Example 48, N-(4-nitrophenethyl)-2-(trifluoromethyl)quinazolin-4-amine] | 14.2 µM | 7.3 µM
12 | O=[N+]([O-])c1ccc(C(F)(F)CNc2ncnc3ccccc23)cc1 [Example 59, N-(2,2-difluoro-2-(4-nitrophenyl)ethyl)quinazolin-4-amine] | 0.16 µM | 0.35 µM
13 | O=[N+]([O-])c1ccc(CCNc2nc(Cl)nc3ncccc23)cc1 [Example 67, 2-chloro-N-(4-nitrophenethyl)pyrido[2,3-d]pyrimidin-4-amine] | 3.7 µM | 4.4 µM
14 | O=[N+]([O-])c1ccc(CCNc2cc(Cl)nc3ccc(-c4ccc(Cl)cc4Cl)cc23)cc1 [Example 55, 2-chloro-6-(2,4-dichlorophenyl)-N-(4-nitrophenethyl)quinolin-4-amine] | > 50 µM | > 50 µM
15 | O=[N+]([O-])c1ccc(CCNc2ccnc3ccccc23)cc1 [Example 17, N-(4-nitrophenethyl)quinolin-4-amine] | 4.7 µM | 1.6 µM

Second part, the compound after the results:

Row | IC50 [1] | IC50 (STAT3) | Compound
16 | 33 µM | 35.9 µM | CS(=O)(=O)Nc1ccc(CCNc2nccc3occc23)cc1 [Example 73, N-(4-(2-(furo[3,2-c]pyridin-4-ylamino)ethyl)phenyl)methanesulfonamide]
17 | 29.5 µM | 14 µM | O=S(=O)(Nc1ccc(CCNc2ncnc3ccccc23)cc1)C(F)(F)F [Example 60, 1,1,1-trifluoro-N-(4-(2-(quinazolin-4-ylamino)ethyl)phenyl)methanesulfonamide]
18 | 6 µM | 4.3 µM | CS(=O)(=O)Nc1ccc(CCNc2nccc3ccccc23)cc1 [Example 75, N-(4-(2-(isoquinolin-1-ylamino)ethyl)phenyl)methanesulfonamide]
19 | > 50 µM | > 50 µM | CS(=O)(=O)Nc1ccc(CNC(=O)c2cc(Cl)nc3ccccc23)cc1 [Example 58, 2-chloro-N-(4-(methylsulfonamido)benzyl)quinolin-4-carboxamide]
20 | 0.23 µM | 0.063 µM | CS(=O)(=O)Nc1ccc(CCNc2ncnc3ccc(F)cc23)cc1 [Example 64, N-(4-(2-((6-fluoroquinazolin-4-yl)amino)ethyl)phenyl)methanesulfonamide]
21 | 3.5 µM | 2.6 µM | O=[N+]([O-])c1ccc(CCNc2cc(Cl)nc3ccccc23)cc1 [Example 1, 2-chloro-N-(4-nitrophenethyl)quinolin-4-amine]
22 | 0.71 µM | 0.74 µM | CS(=O)(=O)Nc1ccc(CCNc2ncnc3ccsc23)cc1 [Example 66, N-(4-(2-(thieno[3,2-d]pyrimidin-4-ylamino)ethyl)phenyl)methanesulfonamide]
23 | 8.6 µM | 17.9 µM | CS(=O)(=O)Nc1ccc(CCNc2cc(Cl)nc3ccc(-c4ccc(Cl)cc4Cl)cc23)cc1 [Example 57, N-(4-(2-((2-chloro-6-(2,4-dichlorophenyl)quinolin-4-yl)amino)ethyl)phenyl)methanesulfonamide]
24 | 1.9 µM | 0.75 µM | CS(=O)(=O)Nc1ccc(CCNc2cncc3ccccc23)cc1 [Example 63, N-(4-(2-(isoquinolin-4-ylamino)ethyl)phenyl)methanesulfonamide]
25 | 6.6 µM | 3.1 µM | CS(=O)(=O)Nc1ccc(CCNc2cc(C(F)(F)F)nc3ccccc23)cc1 [Example 52, N-(4-(2-((2-(trifluoromethyl)quinolin-4-yl)amino)ethyl)phenyl)methanesulfonamide]
26 | 18.9 µM | 33.7 µM | CS(=O)(=O)Nc1ccc(CCNc2ccnc3c(F)cccc23)cc1 [Example 46, N-(4-(2-((8-fluoroquinolin-4-yl)amino)ethyl)phenyl)methanesulfonamide]
27 | 13.9 µM | 6.6 µM | CS(=O)(=O)Nc1ccc(CCNc2ncnc3ccc(-c4ccc(Cl)cc4Cl)cc23)cc1 [Example 56, N-(4-(2-((6-(2,4-dichlorophenyl)quinazolin-4-yl)amino)ethyl)phenyl)methanesulfonamide]
28 | 0.81 µM | 0.85 µM | CS(=O)(=O)N(O)c1ccc(CCNc2cc(Cl)nc3ccccc23)cc1 [Example 2, N-(4-(2-((2-chloroquinolin-4-yl)amino)ethyl)phenyl)-N-hydroxymethanesulfonamide]
29 | 1.4 µM | 0.62 µM | Cc1cnc2ccccc2c1NCCc1ccc(NS(C)(=O)=O)cc1 [Example 72, N-(4-(2-((3-methylquinolin-4-yl)amino)ethyl)phenyl)methanesulfonamide]
30 | 15.7 µM | 3 µM | CS(=O)(=O)Nc1ccc(CCNc2nc(C(F)(F)F)nc3ccccc23)cc1 [Example 53, N-(4-(2-((2-(trifluoromethyl)quinazolin-4-yl)amino)ethyl)phenyl)methanesulfonamide]
31 | 0.14 µM | 0.14 µM | CS(=O)(=O)Nc1ccc(CCNc2ccnc3cccc(OC(F)(F)F)c23)cc1 [Example 27, N-(4-(2-((5-(trifluoromethoxy)quinolin-4-yl)amino)ethyl)phenyl)methanesulfonamide]
